Measurements published in publication PMC11588265, “Auto QSAR-based active learning docking for hit identification of potential inhibitors of Plasmodium falciparum Hsp90 as antimalarial agents” (PLOS ONE, 2024).
“And” between values parts separate entries of the source, which are not always exact repeats. Identical values can stand only once. Like-named read-outs stand apart in the source and are kept apart here.

How the values were obtained:
P. falciparum 3D7 = details: cited from earlier work
[1] = system: human fibroblast cell line; set-up: method as in Everson et al., 2021; details: ref Everson et al., 2021, cited from earlier work
HepG2 = system: HepG2; set-up: method as in Everson et al., 2021; details: ref Everson et al., 2021, cited from earlier work
[2] = system: P. falciparum NF54 strain; assay: In vitro anti-Plasmodium assay (parasite lactate dehydrogenase); assay type: cell-based; details: P. falciparum NF54 drug-sensitive strain, read-out: In vitro IC50 PfNF54
Experimental: In vitro anti-Plasmodial assays were conducted at the H3D testing centre at the University of Cape Town. All 15 commercially available compounds were evaluated for anti-Plasmodium activity using a parasite lactate dehydrogenase assay as a marker for parasite survival, as previously described by. Briefly, the parasites were synchronized at the ring stage using d-sorbitol in water. Approximately 2 mg/mL stock solutions of reference drugs, chloroquine and artesunate, were prepared in water and DMSO respectively then stored in -20°C. Test compounds and reference drugs were serially diluted to give 10 concentrations with a final volume of 100 μL in each well. Parasites were incubated in the presence of the compounds at 37°C under hypoxic conditions (4% CO2 and 3% O2 in N2) for 72 h. The absorbance was measured at 620 nm on a microplate reader. Survival was plotted against concentration and the IC50-values were obtained using a non-linear dose-response curve fitting analysis via the Dotmatics software platform.

[3] = system: Chinese Hamster Ovarian (CHO) cells; assay: In vitro cytotoxicity, MTT assay, CHO cells; assay type: cell-based; details: for IC50: CHO cells, MTT, 48 h, read-out: In vitro IC50 Mammalian cells; for Mammalian cells (SI): selectivity index, CHO vs PfNF54
Experimental: (§1) Selectivity of the compounds for the parasites was determined using two cytotoxicity assays both of which were conducted at the H3D Centre. Compounds were screened against the mammalian cells, Chinese Hamster Ovarian (CHO) and hepatocellular carcinoma (HepG2), using the 3-(4,5-dimethylthiazol-2-yl)-2,5-diphenyltetrazoliumbromide (MTT) assay. Cells were plated to a density of 10^5 cells/well in 96-well plates and allowed to attach for 24h. After that compounds were added at various concentrations from 50μM to 16nM and the cells incubated for a further 48h. Emetine was used as the control. After that MTT was added and plates were read 4h later. ‘‘Survival” was plotted against concentration and the IC50-values were obtained using a non-linear dose-response curve fitting analysis via the Dotmatics software platform.

[4] = system: hepatocellular carcinoma (HepG2); assay: In vitro cytotoxicity, MTT assay, HepG2 cells; assay type: cell-based, human; details: for IC50: HepG2 cells, MTT, 48 h; for HepG2 (SI): selectivity index, HepG2 vs PfNF54
Experimental: as §1

PfHsp90-NTD = PfHsp90-NTD (Plasmodium falciparum, UniProt Q8IC05); assay: Surface plasmon resonance (MP-SPR) binding to immobilized PfHsp90-NTD
Experimental: The NTD of PfHsp90 was expressed and purified as described in [29] and 20μg/ml of the protein was used to study the binding affinities of selected ligands using BioNavis Navi 420A ILVES multi-parametric surface plasmon resonance (MP-SPR) system (BioNavis, Finland) as previously described. Briefly, PfHsp90-NTD was immobilized to a Carboxymethyl dextran coated sensor slide (BioNavis SPR102- CMD-3D). The sensor slide was activated with 0.1 M EDC/0.05 M NHS. At pH 5, PfHsp90-NTD suspended in 5 mM of sodium acetate was immobilized on one channel of the 3 CMD chip. 1 M ethanolamine HCl was used to deactivate the chip by removing excess NHS = EDC, and the sensor cleaned with NaCl/NaOH unspecific binding molecules. Varying concentrations (0-2000/5000 nM) of compounds FTN-T2 and FTN-T5 were injected and introduced to the flow cell, allowing binding to the surface. Data Viewer (BioNavis, Finland) and Trace Drawer software version 1.8 (Ridgeview instruments, Uppsala, Sweden) were used to process and analyze the steady-state equilibrium constant data and estimate the binding affinities.

Plasmodium = details: known inhibitor; ref (11); read-out: anti-Plasmodium IC50; cited from earlier work
[5] = P. falciparum 3D7, chloroquine-sensitive strain, ref Everson et al., 2021, read-out: In vitro IC50 Pf3D7
[6] = Plasmodium falciparum, NF54, 72 h

Sequence of PfHsp90-NTD (Q8IC05 entry or part of it): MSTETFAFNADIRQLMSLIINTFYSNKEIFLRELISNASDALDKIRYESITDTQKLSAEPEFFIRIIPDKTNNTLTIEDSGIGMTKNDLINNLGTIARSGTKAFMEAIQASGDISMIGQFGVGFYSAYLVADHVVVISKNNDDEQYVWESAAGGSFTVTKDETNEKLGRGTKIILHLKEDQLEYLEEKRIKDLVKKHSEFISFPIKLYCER

For `O=C(NCc1ccc2c(c1)OCO2)C1CCN(c2ncnc3onc(-c4cccc(F)c4)c23)CC1` [Compound 7], which IC50 (P. falciparum 3D7; [5]) is on record?
The IC50 was 980 ± 654 nM.

What does the source list for `O=C(N[C@H]1CCc2ccccc21)C1CCN(c2ncccc2-c2nc(-c3ccccc3)no2)CC1` [Compound 10]?
IC50 (P. falciparum 3D7; [5]): 1110 ± 970 nM; IC50 ([1]; human fibroblast cell line, read-out: In vitro IC50 Mammalian cells): > 24 µM; Mammalian cells (SI) ([1]; selectivity index): > 21; IC50 (HepG2; HepG2, read-out: In vitro IC50 HepG2): > 24 µM; HepG2 (SI) (HepG2; selectivity index): > 21

With `Nc1ncnc2c1nc(Br)n2[C@@H]1O[C@H](CO)[C@@H](O)[C@H]1O` [FTN-T2] as the molecule, how does the IC50 [2, 6] read?
The IC50 was 4.49 ± 1.51 µM.

What about the IC50 ([3]; Cricetulus griseus) of the same molecule?
The IC50 was over 50 µM.

And the IC50 ([4]; Homo sapiens)?
Its IC50 is 1.5 µM.

What about the “HepG2 (SI)” value [4] of the same molecule?
Its value is 0.

What about the Kd (PfHsp90-NTD; SPR, immobilized PfHsp90-NTD, read-out: equilibrium constant denoting affinity KD) of the same molecule?
Its Kd is 7 nM and 7.11 nM.

Which IC50 ([2]; 72 h) does the source give for `Cn1c(=O)ccn([C@@H]2O[C@H](CO)[C@@H](O)[C@H]2O)c1=O` [FTN-T5] here?
The IC50 was 1.44 ± 0.5 µM.

And the IC50 [2, 6]?
The IC50 was under 1.5 µM.

And the “average SI” value ([3]; CHO and HepG2 cell lines)?
Its value is at least 30.

And the IC50 ([3]; Cricetulus griseus)?
The IC50 was over 50 µM.

What about the “Mammalian cells (SI)” value [3] of the same molecule?
The value was over 35.

What about the “selectivity index (SI)” value ([4]; HepG2/CHO cells vs PfNF54) of the same molecule?
Its value is at least 29.

What about the IC50 ([4]; Homo sapiens) of the same molecule?
Its IC50 is 42.3 µM.

What about the “HepG2 (SI)” value [4] of the same molecule?
Its value is 29.

What about the Kd (PfHsp90-NTD; read-out: equilibrium constant denoting affinity KD) of the same molecule?
Its Kd is 19.9 nM and 19 nM.

With `Nc1nc2c(ncn2[C@H]2C[C@H](F)[C@@H](CO)O2)c(=O)[nH]1` [FTN-T9] as the molecule, how does the IC50 ([2]; 72 h) read?
The IC50 was 4.86 ± 1.14 µM.

And the IC50 [3]?
The IC50 was over 50 µM.

What about the “Mammalian cells (SI)” value [3] of the same molecule?
Its value is over 10.

And the IC50 [4]?
The IC50 was over 50 µM.

And the “HepG2 (SI)” value [4]?
The value was over 10.

For `COC1=C2C[C@@H](C)C[C@H](OC)[C@H](O)[C@@H](C)/C=C(\C)[C@H](OC(N)=O)[C@@H](OC)/C=C\C=C(/C)C(=O)NC(=CC1=O)C2=O` [Geldanamycin, geldanamycin], which IC50 (Plasmodium) is on record?
The IC50 was 20 nM.

What does the source list for `COc1ccc2c(c1)[nH]c1c(C)nccc12` [Harmine, reference compound]?
Kd (PfHsp90-NTD; equilibrium constant denoting affinity KD, SPR, immobilized PfHsp90-NTD): 18.2 nM; IC50 (P. falciparum 3D7; P. falciparum, ref Shahinas et al., 2010, read-out: In vitro IC50 PfNF54/ Pf3D7): 50 nM
